Laboratory results reported in PMC11971462, “Generation and validation of a novel multitarget small molecule in glioblastoma” (Cell Death & Disease, 2025).
“And” between values parts separate entries of the source, which are not always exact repeats. Identical values can stand only once.

Columns and labels:
HDAC6 = HDAC6 (Homo sapiens, UniProt Q9UBN7); experiment: HDAC6 enzyme inhibition; assay type: biochemical; settings: read-out: HDAC inhibition IC50 HDAC6
Method: The inhibitory capacity of DDI199 on HDACs was studied as previously described. The capacity of DDI199 to inhibit MAOs was studied by mimicking the reaction occurring in cells. Briefly, inhibitor solution containing 10 µM of DDI199 or reference compound was incubated for 30 minutes at 37 °C together with the enzyme solution, containing either recombinant hMAO-A (Sigma-Aldrich) at 0.5 U/mL or hMAO-B (Sigma-Aldrich) at 1.5 U/mL. 200 U/mL horseradish peroxidase (Sigma-Aldrich), 20 mM Ampliflu Red (Sigma-Aldrich) and 100 mM tyramine hydrochloride (Sigma-Aldrich) were then added and absorbance at 570 nm was measured every 5 minutes for 30 minutes. Percentage of inhibition was estimated from these values.

[1] = test system: GNS166 patient-derived glioma stem cells; experiment: MTT cell viability; assay type: cell-based; settings: Homo sapiens, 72 h
Method: (§1) MTT assay was used to study cell viability. For that, cells were seeded at a density of 1.5 × 10^3 cells/well in 96-well plates, incubated overnight and then treated with increasing concentrations of DDI199. After 72 h of treatment, MTT absorbance was measured at 570 nm. GraphPad Prism software was used to analyze results and calculate IC50 values.

[2] = test system: GNS179 patient-derived glioma stem cells; experiment: MTT cell viability; assay type: cell-based; settings: Homo sapiens, 72 h
Method: as §1

[3] = test system: Normal Human Astrocytes (NHA); experiment: MTT cell viability; assay type: cell-based; settings: Astrocyte, 72 h
Method: as §1

U251-MG glioma cells = experiment: MTT cell viability; assay type: cell-based; settings: Homo sapiens, U-251, 72 h
Method: as §1

U87-MG glioma cells = experiment: MTT cell viability; assay type: cell-based; settings: Homo sapiens, U-87 MG, 72 h
Method: as §1

[4] = test system: gastric cancer MKN45 cells; experiment: MTT cell viability; assay type: cell-based; settings: Homo sapiens, MKN-45, 72 h
Method: as §1

[5] = test system: lung cancer NCI-H1299 cells; experiment: MTT cell viability; assay type: cell-based; settings: Homo sapiens, 72 h
Method: as §1

[6] = test system: pancreatic cell line RWP1; experiment: MTT cell viability; assay type: cell-based; settings: Homo sapiens, 72 h
Method: as §1

GNS179 cells = experiment: Immunofluorescence of pH3, Cleaved Caspase 3; assay type: cell-based, human; settings: for pH3-positive cells: control […]
Method: (§2) Immunofluorescence assays were performed following standard procedures. Cells were seeded at a density of 2 × 10^4 cells/well in 8-well immunofluorescence chambers (LabTek Thermo) and incubated overnight before treating with increasing concentrations of DDI199. After 48 h, cells were fixed with 4% PFA. Primary antibodies against phosphohistone H3 (pH3) (ab14955, abcam), Cleaved Caspase 3 (AF385, R&D Systems), Ki67 (ab15580, abcam) and PARP1 (ab32064, abcam) were used. Secondary antibodies were Alexa Fluor anti-mouse (A21422, Invitrogen) and Alexa Fluor anti-rabbit (A31572, Invitrogen), and chromatin was stained with DAPI (D9541, Sigma-Aldrich). Axio Observer 7 epifluorescence microscope was used to take pictures, which were later quantified in Qupath.

[7] = In vivo toxicity assay (body weight, organ macroscopy); parameters: species or system athymic nude-Foxn1nu mice; settings: intraperitoneal 15 mg/mL, 5 times per week for 4 weeks
Method: 15 mg/mL of DDI199 or vehicle (DMSO) were intraperitoneally injected in athymic nude-Foxn1^nu mice following a schedule of 5 days on and 2 days off and changes in body weight were measured to assess the potential toxicity of the MSM. At the end-point macroscopic analysis of the different organs was done.

U87-MG tumors = experiment: Immunohistochemistry of subcutaneous tumors; assay type: in vivo, athymic nude-Foxn1nu mice
Method: Subcutaneous tumors were extracted, fixed with 4% formaldehyde for 48 h and embedded in paraffin. Tumor sections were obtained and stainings for acetyl H3 (9649, Cell Signaling), acetylated α-tubulin (ab179484, abcam), PCNA (Ab18197, abcam) and Cleaved Caspase 3 (AF835, R&D Systems) were performed. ZEISS Axioscan 7 slide scanner was used to capture images of the stainings and analyses were done using Qupath.

U87-MG tumor cells = experiment: Oncosphere formation from disaggregated treated tumors; assay type: cell-based
Method: For oncosphere formation assay, cells were cultured in non-treated 48-well plates in DMEM/F12 medium supplemented with EGF and FGF and fresh media was added every 2 days. After 7 days, oncosphere formation was documented and the number of spheres was quantified using Qupath.
For tumor growth experiments, 5 × 10^5 U87-MG cells were subcutaneously injected into two bottom flanks of athymic nude-Foxn1^nu mice, and once tumors reached a size of 25-50 mm^3, mice were sorted into groups taking into account gender and tumor size. Afterwards, mice were intratumorally treated with vehicle, SAHA 100 µM or DDI199 100 µM following a schedule of 5 days on and 2 days off. In combined treatment, mice were treated intraperitoneally with 0.5 mg/Kg of TMZ for 5 days and intratumorally following a schedule of 5 days on and 2 days off with vehicle, SAHA 100 µM or DDI199 100 µM. After 4 weeks of treatment, some mice were kept for washout experiment, while the rest were sacrificed and tumors were extracted for immunohistochemistry and to disaggregate for reinjection and oncosphere formation studies. For reinjection assays, 1.5 × 10^5 cells were subcutaneously injected and tumor size was periodically measured. Once tumors reached end-point criteria, they were extracted for immunohistochemical analysis. […]

GNS166 cells = experiment: q-RTPCR of selected DEGs; assay type: cell-based, human; settings: GNS166 treated versus non-treated
Method: Total RNA was extracted using Trizol (Life Thechnologies). Reverse transcription was then performed with the Maxima First Strand cDNA Synthesis Kit (ThermoFisher), following manufacturer’s guidelines. Quantitative real-time PCR was carried out in a CFX384 Thermal Cycler (BioRad) by Absolute SYBR Green mix (ThermoFisher). GAPDH was used as housekeeping gene for the correction of variations on initial cDNA levels, and relative gene expression was determined using the 2^-ΔΔCt formula.

U87-MG and U251-MG cells = experiment: Immunofluorescence of pH3 and Cleaved Caspase-3; assay type: cell-based, human; settings: U87-MG and U251-MG, 1, 5 and 10 μM
Method: as §2

Sequence of HDAC6 (Q9UBN7 whole entry): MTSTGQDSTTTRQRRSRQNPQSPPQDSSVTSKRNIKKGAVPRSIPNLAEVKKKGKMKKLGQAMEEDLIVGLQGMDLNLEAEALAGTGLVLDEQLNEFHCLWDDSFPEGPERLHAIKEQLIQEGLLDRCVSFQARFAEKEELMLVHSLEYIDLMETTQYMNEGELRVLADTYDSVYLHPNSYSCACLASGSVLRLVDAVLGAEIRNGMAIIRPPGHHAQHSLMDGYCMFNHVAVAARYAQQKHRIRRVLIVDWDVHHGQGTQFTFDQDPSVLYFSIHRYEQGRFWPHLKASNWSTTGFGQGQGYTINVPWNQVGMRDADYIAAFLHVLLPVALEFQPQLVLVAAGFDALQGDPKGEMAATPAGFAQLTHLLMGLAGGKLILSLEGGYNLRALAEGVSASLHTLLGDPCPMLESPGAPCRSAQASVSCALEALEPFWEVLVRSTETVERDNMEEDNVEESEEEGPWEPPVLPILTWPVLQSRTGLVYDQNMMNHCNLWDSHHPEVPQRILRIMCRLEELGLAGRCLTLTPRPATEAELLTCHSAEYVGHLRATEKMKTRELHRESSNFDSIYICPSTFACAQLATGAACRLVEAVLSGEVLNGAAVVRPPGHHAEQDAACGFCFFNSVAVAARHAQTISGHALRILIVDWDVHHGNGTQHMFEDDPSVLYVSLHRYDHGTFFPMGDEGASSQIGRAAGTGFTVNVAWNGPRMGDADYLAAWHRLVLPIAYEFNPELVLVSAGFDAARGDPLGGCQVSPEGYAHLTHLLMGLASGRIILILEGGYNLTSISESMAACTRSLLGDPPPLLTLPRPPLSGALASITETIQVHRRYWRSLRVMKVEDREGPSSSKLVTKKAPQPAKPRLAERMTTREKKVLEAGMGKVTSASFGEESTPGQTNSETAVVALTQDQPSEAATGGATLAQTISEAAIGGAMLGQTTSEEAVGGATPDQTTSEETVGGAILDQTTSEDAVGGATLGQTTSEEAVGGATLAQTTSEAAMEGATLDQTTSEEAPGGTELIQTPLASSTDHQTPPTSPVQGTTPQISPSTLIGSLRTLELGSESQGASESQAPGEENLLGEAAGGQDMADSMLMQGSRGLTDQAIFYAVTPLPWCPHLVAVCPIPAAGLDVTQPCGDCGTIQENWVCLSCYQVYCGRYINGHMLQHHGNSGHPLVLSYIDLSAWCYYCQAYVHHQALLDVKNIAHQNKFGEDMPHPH

C#CCN(Cc1cc2cc(OCCCN3CCCCC3)ccc2n1S(=O)(=O)c1ccccc1)C(=O)CCCCCCC(=O)NO [DDI199]
IC50 (HDAC6): 0.095 µM and 0.09 µM | IC50 [1]: 13 µM | IC50 [2]: 5.28 µM | IC50 [3]: 7 µM | IC50 (U251-MG glioma cells): 5.45 µM | IC50 (U87-MG glioma cells): 3.23 µM | IC50 [4]: 2.61 µM | IC50 [5]: 3.33 µM | IC50 [6]: 0.88 µM | pH3-positive cells (GNS179 cells; GNS179, 1 µM): 2.4% | pH3-positive cells (GNS179 cells; GNS179, 5 µM): 0.8% | pH3-positive cells (GNS179 cells; GNS179, 10 µM): 0.11% | Cleaved Caspase-3-positive cells (GNS179 cells; GNS179, 1, 5 and 10 µM): increase | Body weight of animals compared to controls [7]: did not significantly affect the body weight | Macroscopic analysis of organs at end-point [7]: did not observe any difference | acetyl H3 immunohistochemical staining (U87-MG tumors; tumors at day 34, 100 µM intratumoral): 83% | acetyl α-tubulin immunohistochemical staining (U87-MG tumors; tumors at day 34, control 0.25): 0.32 | Cleaved Caspase 3 positive cells (U87-MG tumors; tumors at day 34, control 0.7%): 1.5% | PCNA positive cells (U87-MG tumors; tumors at day 34, control 70%): 64% | Oncospheres formed by cells from treated tumors (U87-MG tumor cells; GSC medium, 7 days): fewer oncospheres | Oncospheres from treated tumors, combined with TMZ (U87-MG tumor cells; TMZ plus DDI199 versus control and TMZ-treated cells): significantly lower number of oncospheres | Expression of genes associated to neurotransmission/synapsis (q-RTPCR) (GNS166 cells): significantly higher | Expression of genes associated with cell cycle and DNA remodeling (q-RTPCR) (GNS166 cells): significantly reduced | Caspase-3 positive cells (U87-MG and U251-MG cells): markedly increased | p-H3 positive cells (U87-MG and U251-MG cells): reduced
